Converted amounts (≈) assume the structure as drawn.

MIC and IC50 data for four molecules are collected here from US20240270762A1, “PENICILLIN-BINDING PROTEIN INHIBITORS” (priority 2021, published 2024).

One assay concerns A. baumannii 1258916. The assay is described as follows: microbe, parasite or virus in culture. In kind it is cell-based, Acinetobacter baumannii. As to conditions: Acinetobacter baumannii, 1258916, read-out: MIC, A. baumannii 1258916.
The test system of a further assay is P. aeruginosa CDC-0090. The assay is described as follows: microbe, parasite or virus in culture. In kind it is cell-based. To be noted: Pseudomonas aeruginosa, CDC0090, read-out: Minimum inhibitory concentration, P. aeruginosa CDC-0090.
A further assay concerns N. gonorrhoeae WHO K. Put plainly: Liquid broth MIC in Fastidious broth. As to conditions: Neisseria gonorrhoeae, read-out: Minimum Inhibitory Concentration, WHO K.
The next assay concerns P. aeruginosa CDC-0110. Put plainly: microbe, parasite or virus in culture. Type of assay: cell-based. As to conditions: Pseudomonas aeruginosa, CDC0110, read-out: Minimum inhibitory concentration, P. aeruginosa CDC-0110.
Assay [1] concerns the target T1, PBP3 from Acinetobacter baumannii (ATCC 19606) (Acinetobacter baumannii, UniProt A0ABX6CK25).
T1 sequence (A0ABX6CK25 64-610): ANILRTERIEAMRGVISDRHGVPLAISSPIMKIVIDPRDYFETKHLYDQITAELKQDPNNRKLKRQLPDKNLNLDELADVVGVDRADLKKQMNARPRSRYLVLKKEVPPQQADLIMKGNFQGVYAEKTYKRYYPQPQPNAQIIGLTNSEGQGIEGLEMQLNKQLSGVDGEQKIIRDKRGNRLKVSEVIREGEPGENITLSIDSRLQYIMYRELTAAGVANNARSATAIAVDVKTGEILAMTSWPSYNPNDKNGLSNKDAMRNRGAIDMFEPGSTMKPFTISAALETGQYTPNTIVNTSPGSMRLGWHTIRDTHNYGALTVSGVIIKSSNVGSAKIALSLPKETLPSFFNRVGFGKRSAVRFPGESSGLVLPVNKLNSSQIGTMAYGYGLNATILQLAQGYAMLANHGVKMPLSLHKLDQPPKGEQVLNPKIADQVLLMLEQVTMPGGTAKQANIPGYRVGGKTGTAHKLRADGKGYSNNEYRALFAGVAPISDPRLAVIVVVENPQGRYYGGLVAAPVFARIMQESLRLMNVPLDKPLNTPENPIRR
The assay is described as follows: Bocillin-FL fluorescence polarization competition binding, A. baumannii PBP3. To be noted: fluorescence polarization competition binding assay using Bocillin-FL; read-out: A. baumannii PBP3 Potency. The essentials:
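Purified PBPs pre-incubated with inhibitor (E. coli PBP3 1.5 μM, 30 min; P. aeruginosa PBP3 0.75 μM, A. baumannii PBP1a 1 μM and PBP3 0.2 μM, 15 min), then Bocillin-FL 0.1 μM (0.05 μM for PBP1a) added; FP read up to 60 min. EC50 = concentration halving bound Bocillin-FL.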
In general terms: Fluorescence polarisation rises when a labelled molecule tumbles more slowly, as on binding a larger partner.

The next assay concerns N. gonorrhoeae WHO M. Put plainly: Liquid broth MIC in Fastidious broth. To be noted: Neisseria gonorrhoeae, read-out: Minimum Inhibitory Concentration, WHO M.
Another assay concerns A. baumannii CDC-0083. The assay is described as follows: microbe, parasite or virus in culture. Type of assay: cell-based. To be noted: Acinetobacter baumannii, CDC0083, read-out: MIC, A. baumannii CDC-0083.
The next assay deals with P. aeruginosa CDC-0095. The assay is described as follows: microbe, parasite or virus in culture. To be noted: Pseudomonas aeruginosa, CDC0095, read-out: Minimum inhibitory concentration, P. aeruginosa CDC-0095. Type of assay: cell-based.
The next assay has as its system N. gonorrhoeae WHO X. Put plainly: Liquid broth MIC in Fastidious broth. To be noted: Neisseria gonorrhoeae, read-out: Minimum Inhibitory Concentration, WHO X.
In a further assay the test system is A. baumannii ATCC 17978. The assay is described as follows: microbe, parasite or virus in culture. To be noted: Acinetobacter baumannii, ATCC17978, read-out: MIC, A. baumannii ATCC 17978. Type of assay: cell-based.
The next assay deals with A. baumannii CDC-0033. The assay is described as follows: microbe, parasite or virus in culture. Type of assay: cell-based. To be noted: Acinetobacter baumannii, CDC0033, read-out: MIC, A. baumannii CDC-0033.

Protocol for N. gonorrhoeae WHO X: Liquid broth-based assays were used for antibacterial testing of PBP inhibitors in Neisseria gonorrhoeae. Briefly, cryo-preserved bacterial cultures of clinical strains were streaked for isolation on Chocolate Agar (72 g/L (2×) GC Agar Base (BD #228950) and 2% (2×) Hemoglobin was autoclaved at 121° C. for 20 minutes to sterilize. Once cooled to ˜50° C. the 2×GC Agar Base and 2× Hemoglobin solutions are combined and 1% IsoVitaleX Enrichment (BD #211876) was added to the solution). Strains were incubated at 36° C. and 5% CO2 to allow growth of colonies, 24 hours before inoculum preparation. 2-fold serial dilutions of test compounds were conducted in a 96 well plate with a final volume of 75 μL per well at 2-fold the final desired concentration in Fastidious broth (Remel #R07664). For preparation of assay inoculum, a direct suspension was prepared by aseptically swabbing 10-15 colonies from agar plates into culture tubes containing 2 mL of fresh sterile saline. After the dilution plates were set up, direct suspensions were then diluted in a cuvette containing sterile saline and the optical density was measured at 600 nm. Inocula were diluted such that 75 μL of this culture in Fastidious broth results in a starting bacterial concentration of 5×10^5 CFU/mL when added to the dilution plates. The plates were incubated for ˜24 hours at 36° C. and 5% CO2.

Consider `O=C(NCCCN1CCN(C(=O)NC(C(=O)N[C@H]2Cc3ccc(F)c(C(=O)O)c3OB2O)c2cc(F)c(O)c(O)c2Cl)C1=O)Nc1cccnc1` (stereo partly drawn) [Example 259, (3R)-3-(2-(2-chloro-5-fluoro-3,4-dihydroxyphenyl)-2-(2-oxo-3-(3-(3-(pyridin-3-yl)ureido)propyl)imidazolidine-1-carboxamido)acetamido)-7-fluoro-2-hydroxy-3,4-dihydro-2H-benzo[e][1,2]oxaborinine-8-carboxylic acid], for which the MIC with A. baumannii 1258916 is under 1 µg/mL; in the assay on P. aeruginosa CDC-0090, under 1 µg/mL; with N. gonorrhoeae WHO K it was over 64 µg/mL; with P. aeruginosa CDC-0110, under 1 µg/mL; with N. gonorrhoeae WHO M it was 4 to 8 µg/mL (≈ 5.47 to 10.9 µM); in the assay on A. baumannii CDC-0083, under 1 µg/mL. In addition, the MIC with P. aeruginosa CDC-0095 is 2 to 4 µg/mL (≈ 2.73 to 5.47 µM); in the assay on N. gonorrhoeae WHO X, over 64 µg/mL; with A. baumannii ATCC 17978, under 1 µg/mL; in the assay with A. baumannii CDC-0033 it was 2 to 4 µg/mL (≈ 2.73 to 5.47 µM). In addition, in [1], the IC50 is under 10 µM.
As to `O=C(NCCS(=O)(=O)N1CCN(C(=O)NC(C(=O)N[C@H]2Cc3ccc(F)c(C(=O)O)c3OB2O)c2cc(F)c(O)c(O)c2Cl)C1=O)c1ccccc1` (stereo partly drawn) [Example 260, (3R)-3-(2-(3-((2-benzamidoethyl)sulfonyl)-2-oxoimidazolidine-1-carboxamido)-2-(2-chloro-5-fluoro-3,4-dihydroxyphenyl)acetamido)-7-fluoro-2-hydroxy-3,4-dihydro-2H-benzo[e][1,2]oxaborinine-8-carboxylic acid], the MIC was under 1 µg/mL with A. baumannii 1258916; 2 to 4 µg/mL (≈ 2.61 to 5.22 µM) in the assay on P. aeruginosa CDC-0090; over 64 µg/mL with N. gonorrhoeae WHO K; 2 to 4 µg/mL (≈ 2.61 to 5.22 µM) with P. aeruginosa CDC-0110; 16 to 32 µg/mL (≈ 20.9 to 41.8 µM) in the assay with N. gonorrhoeae WHO M; under 1 µg/mL in the assay on A. baumannii CDC-0083. Further, the MIC in the assay on P. aeruginosa CDC-0095 was 2 to 4 µg/mL (≈ 2.61 to 5.22 µM); in the assay on N. gonorrhoeae WHO X, over 64 µg/mL; in the assay on A. baumannii ATCC 17978, under 1 µg/mL; in the assay with A. baumannii CDC-0033, 2 to 4 µg/mL (≈ 2.61 to 5.22 µM). Moreover, the IC50 in assay [1] is under 10 µM.
As to `O=C(NCCS(=O)(=O)N1CCN(C(=O)NC(C(=O)N[C@H]2Cc3ccc(F)c(C(=O)O)c3OB2O)c2cc(F)c(O)c(O)c2Cl)C1=O)c1cccc(O)c1` (stereo partly drawn) [Example 261, (3R)-3-(2-(2-chloro-5-fluoro-3,4-dihydroxyphenyl)-2-(3-((2-(3-hydroxybenzamido)ethyl)sulfonyl)-2-oxoimidazolidine-1-carboxamido)acetamido)-7-fluoro-2-hydroxy-3,4-dihydro-2H-benzo[e][1,2]oxaborinine-8-carboxylic acid], the MIC in the assay with A. baumannii 1258916 is under 1 µg/mL; in the assay with P. aeruginosa CDC-0090 it was 2 to 4 µg/mL (≈ 2.56 to 5.12 µM); with N. gonorrhoeae WHO K, over 64 µg/mL; in the assay with P. aeruginosa CDC-0110, 2 to 4 µg/mL (≈ 2.56 to 5.12 µM); in the assay with N. gonorrhoeae WHO M it was 4 to 8 µg/mL (≈ 5.12 to 10.2 µM); in the assay on A. baumannii CDC-0083, under 1 µg/mL. The MIC was 2 to 4 µg/mL (≈ 2.56 to 5.12 µM) in the assay with P. aeruginosa CDC-0095, over 64 µg/mL in the assay on N. gonorrhoeae WHO X, under 1 µg/mL with A. baumannii ATCC 17978 and 2 to 4 µg/mL (≈ 2.56 to 5.12 µM) in the assay with A. baumannii CDC-0033. In [1], the IC50 is under 10 µM.
For `O=C(NCCS(=O)(=O)N1CCN(C(=O)NC(C(=O)N[C@H]2Cc3ccc(F)c(C(=O)O)c3OB2O)c2cc(F)c(O)c(O)c2Cl)C1=O)c1cccnc1` (stereo partly drawn) [Example 262, (3R)-3-(2-(2-chloro-5-fluoro-3,4-dihydroxyphenyl)-2-(3-((2-(nicotinamido)ethyl)sulfonyl)-2-oxoimidazolidine-1-carboxamido)acetamido)-7-fluoro-2-hydroxy-3,4-dihydro-2H-benzo[e][1,2]oxaborinine-8-carboxylic acid], the MIC in the assay on A. baumannii 1258916 is under 1 µg/mL; in the assay on P. aeruginosa CDC-0090 it was under 1 µg/mL; in the assay with N. gonorrhoeae WHO K it was over 64 µg/mL; in the assay with P. aeruginosa CDC-0110, under 1 µg/mL; with N. gonorrhoeae WHO M, 16 to 32 µg/mL (≈ 20.9 to 41.7 µM); in the assay on A. baumannii CDC-0083, under 1 µg/mL. Further, the MIC in the assay with P. aeruginosa CDC-0095 was 2 to 4 µg/mL (≈ 2.61 to 5.22 µM); in the assay on N. gonorrhoeae WHO X, over 64 µg/mL; in the assay with A. baumannii ATCC 17978, under 1 µg/mL; in the assay on A. baumannii CDC-0033, 2 to 4 µg/mL (≈ 2.61 to 5.22 µM). The IC50 in assay [1] was under 10 µM.
